Laboratory results published in ChEMBL document CHEMBL3259577, “Antagonists of the kappa opioid receptor” (Bioorg Med Chem Lett, 2014).
pEC50, pIC50, pKi: −log10 of the molar value. Peptide text beside a SMILES is read from it.

Experiments:
[1] = molecular target: T1, Delta-type opioid receptor (Homo sapiens, UniProt P41143); assay: Inhibition of delta opioid receptor (unknown origin) using SNC-80 by high content imaging beta-arrestin translocation assay
Mu-type opioid receptor [2] = molecular target: T2, Mu-type opioid receptor (Homo sapiens, UniProt P35372); assay: Inhibition of mu opioid receptor (unknown origin) using DAMGO by high content imaging beta-arrestin translocation assay
[3] = molecular target: T3, Kappa-type opioid receptor (Homo sapiens, UniProt P41145); assay: Inhibition of kappa opioid receptor (unknown origin) using dynorphin A by DiscoveryRx b-arrestin PathHunter assay
[4] = molecular target: Mu-type opioid receptor (Rattus norvegicus) (UniProt P33535); assay: Displacement of [3H]DAMGO from rat forebrain OPRM
[5] = molecular target: Kappa-type opioid receptor (Rattus norvegicus) (UniProt P34975); assay: Displacement of [3H]CI977 from rat forebrain OPRK assessed as maximal binding after 30 mins
Rattus norvegicus [6] = assay: Reduction in spiradoline-induced sc dosed rat plasma prolactin levels; type: functional; conditions: read-out: ID50 (the source's name)
[7] = molecular target: Kappa-type opioid receptor (Rattus norvegicus) (UniProt P34975); assay: Displacement of [3H]CI977 from rat forebrain OPRK
[8] = molecular target: T3, Kappa-type opioid receptor; assay: Inhibition of kappa opioid receptor (unknown origin) using dynorphin A by high content imaging beta-arrestin translocation assay
Homo sapiens = organism: Homo sapiens; assay: Selectivity ratio for OPRK (unknown origin) to OPRM (unknown origin)
Rattus norvegicus [9] = assay: Analgesic activity in po dosed rat assessed as inhibition of formalin response; type: functional
[10] = AUC in rat at 1 mg/kg, iv; type: ADME, organism-based; set-up: dose 1 mg/kg, route intravenous; conditions: plasma
[11] = Half life in rat at 1 mg/kg, iv; type: ADME, organism-based; set-up: dose 1 mg/kg, route intravenous; conditions: in vivo
[12] = Oral bioavailability in rat at 10 mg/kg; type: ADME, organism-based; conditions: in vivo
[13] = Half life in rat at 10 mg/kg, po; type: ADME, organism-based; set-up: dose 10 mg/kg, route oral; conditions: in vivo
[14] = Tmax in rat at 1 mg/kg, iv; type: ADME, organism-based; set-up: dose 1 mg/kg, route intravenous; conditions: in vivo
[15] = Tmax in rat at 10 mg/kg, po; type: ADME, organism-based; set-up: dose 10 mg/kg, route oral; conditions: in vivo
[16] = AUC in rat at 10 mg/kg, po; type: ADME, organism-based; set-up: dose 10 mg/kg, route oral; conditions: plasma
[17] = Clearance in rat at 1 mg/kg, iv; type: ADME, organism-based; set-up: dose 1 mg/kg, route intravenous; conditions: in vivo
[18] = Cmax in rat at 10 mg/kg, po; type: ADME, organism-based; set-up: dose 10 mg/kg, route oral; conditions: in vivo
[19] = Cmax in rat at 1 mg/kg, iv; type: ADME, organism-based; set-up: dose 1 mg/kg, route intravenous; conditions: in vivo
[20] = molecular target: T3, Kappa-type opioid receptor; assay: Agonist activity at human cloned kappa opioid receptor expressed in CHO cells assessed as stimulation of [35S]-GTP[gammaS] binding; type: functional, cell-based
[21] = molecular target: T1, Delta-type opioid receptor; assay: Agonist activity at human cloned delta opioid receptor expressed in CHO cells assessed as stimulation of [35S]-GTP[gammaS] binding; type: functional, cell-based
Mu-type opioid receptor [22] = molecular target: T2, Mu-type opioid receptor; assay: Agonist activity at human cloned mu opioid receptor expressed in CHO cells assessed as stimulation of [35S]-GTP[gammaS] binding; type: cell-based
Cavia porcellus = organism: Cavia porcellus; assay: Antagonist activity at delta opioid receptor in guinea pig caudate assessed as inhibition of SNC-80-stimulated [35S]-GTP[gammaS] binding
Mu-type opioid receptor [23] = molecular target: Mu-type opioid receptor (Cavia porcellus, UniProt P97266); assay: Antagonist activity at mu opioid receptor in guinea pig ileum assessed as inhibition of DAMGO-stimulated [35S]-GTP[gammaS] binding; type: functional, tissue-based; conditions: read-out: pA2 (converted)
[24] = molecular target: T3, Kappa-type opioid receptor; assay: Displacement of [3H]diprenorphine from kappa opioid receptor (unknown origin) expressed in CHO cells membranes; type: cell membranes
[25] = molecular target: Kappa-type opioid receptor (Cavia porcellus, UniProt P41144); assay: Antagonist activity at kappa opioid receptor in guinea pig ileum assessed as inhibition of U50488-stimulated [35S]-GTP[gammaS] binding; type: functional, tissue-based; conditions: read-out: pA2 (converted)
Mu-type opioid receptor [26] = molecular target: T2, Mu-type opioid receptor; assay: Displacement of [3H]diprenorphine from mu opioid receptor (unknown origin) expressed in CHO cells membranes; type: cell membranes
[27] = molecular target: T1, Delta-type opioid receptor; assay: Displacement of [3H]diprenorphine from delta opioid receptor (unknown origin) expressed in CHO cells membranes; type: cell membranes
[28] = molecular target: Muscarinic acetylcholine receptor M3 (Homo sapiens, UniProt P20309); assay: Binding affinity to muscarinic M3 receptor (unknown origin)
[29] = molecular target: Muscarinic acetylcholine receptor M2 (Homo sapiens, UniProt P08172); assay: Binding affinity to muscarinic M2 receptor (unknown origin)
Histamine H1 receptor = Histamine H1 receptor (Homo sapiens, UniProt P35367); assay: Binding affinity to histamine H1 receptor (unknown origin)
[30] = molecular target: Sodium-dependent noradrenaline transporter (Homo sapiens, UniProt P23975); assay: Binding affinity to NET (unknown origin)
[31] = molecular target: Sigma non-opioid intracellular receptor 1 (Homo sapiens, UniProt Q99720); assay: Binding affinity to sigma-1 receptor (unknown origin)
[32] = molecular target: 5-hydroxytryptamine receptor 2B (Homo sapiens, UniProt P41595); assay: Binding affinity to 5-HT2B receptor (unknown origin)
[33] = molecular target: Muscarinic acetylcholine receptor M4 (Homo sapiens, UniProt P08173); assay: Binding affinity to muscarinic M4 receptor (unknown origin)
[34] = Drug metabolism in human liver microsomes assessed as compound remaining after 1 hr; type: ADME; conditions: read-out: Drug metabolism
[35] = molecular target: Muscarinic acetylcholine receptor M1 (Homo sapiens, UniProt P11229); assay: Binding affinity to muscarinic M1 receptor (unknown origin)
[36] = molecular target: Alpha-2C adrenergic receptor (Homo sapiens, UniProt P18825); assay: Binding affinity to adrenergic alpha2C receptor (unknown origin)
[37] = molecular target: T3, Kappa-type opioid receptor; assay: Antagonist activity at human cloned kappa opioid receptor expressed in CHO cells assessed as inhibition of U50488-stimulated [35S]-GTP[gammaS] binding; type: functional, cell-based
Mus musculus = organism: Mus musculus; assay: Antinociceptive activity in mouse assessed as reversal of U50488-induced withdrawl latencies; type: functional
[38] = molecular target: T3, Kappa-type opioid receptor; assay: Antagonist activity at human cloned kappa opioid receptor expressed in CHO cells assessed as inhibition of Dynorphin A-stimulated [35S]-GTP[gammaS] binding; type: functional, cell-based
Mu-type opioid receptor [39] = molecular target: T2, Mu-type opioid receptor; assay: Antagonist activity at human cloned mu opioid receptor expressed in CHO cells assessed as inhibition of DAMGO-stimulated [35S]-GTP[gammaS] binding; type: cell-based

T1 sequence (P41143 whole entry): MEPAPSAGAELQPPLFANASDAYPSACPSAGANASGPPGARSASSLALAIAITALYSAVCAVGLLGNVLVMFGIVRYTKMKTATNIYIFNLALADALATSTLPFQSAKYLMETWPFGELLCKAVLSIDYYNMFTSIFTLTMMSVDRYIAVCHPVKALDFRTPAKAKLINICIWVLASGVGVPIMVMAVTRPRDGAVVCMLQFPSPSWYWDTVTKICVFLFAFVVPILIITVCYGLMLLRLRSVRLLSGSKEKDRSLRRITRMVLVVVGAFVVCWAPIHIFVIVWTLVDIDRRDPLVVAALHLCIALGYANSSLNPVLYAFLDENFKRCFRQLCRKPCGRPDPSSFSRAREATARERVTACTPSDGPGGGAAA
T2 sequence (P35372 whole entry): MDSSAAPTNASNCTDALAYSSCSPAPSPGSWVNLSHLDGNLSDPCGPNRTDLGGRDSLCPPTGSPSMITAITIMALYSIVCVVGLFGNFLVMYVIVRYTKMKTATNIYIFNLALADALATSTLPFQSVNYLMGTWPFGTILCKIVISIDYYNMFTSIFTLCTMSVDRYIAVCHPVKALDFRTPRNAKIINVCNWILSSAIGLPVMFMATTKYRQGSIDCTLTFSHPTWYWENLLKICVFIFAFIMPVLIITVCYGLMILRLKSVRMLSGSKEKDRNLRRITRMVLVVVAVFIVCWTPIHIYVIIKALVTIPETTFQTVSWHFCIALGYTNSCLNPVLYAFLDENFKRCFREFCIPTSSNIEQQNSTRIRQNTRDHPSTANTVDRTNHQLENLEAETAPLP
T3 sequence (P41145 whole entry): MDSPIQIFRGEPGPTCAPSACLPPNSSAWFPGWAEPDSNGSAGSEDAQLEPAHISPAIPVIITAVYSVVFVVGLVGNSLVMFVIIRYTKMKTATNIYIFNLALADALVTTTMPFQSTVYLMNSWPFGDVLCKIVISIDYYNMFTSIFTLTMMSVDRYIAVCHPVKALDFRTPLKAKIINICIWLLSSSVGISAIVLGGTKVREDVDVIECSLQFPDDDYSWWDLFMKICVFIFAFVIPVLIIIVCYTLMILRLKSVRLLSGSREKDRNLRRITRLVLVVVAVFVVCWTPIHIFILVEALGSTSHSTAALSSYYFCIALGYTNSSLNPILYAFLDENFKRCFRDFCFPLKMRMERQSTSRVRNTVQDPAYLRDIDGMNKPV
Sequence of Mu-type opioid receptor (Cavia porcellus, UniProt P97266) (P97266 whole entry): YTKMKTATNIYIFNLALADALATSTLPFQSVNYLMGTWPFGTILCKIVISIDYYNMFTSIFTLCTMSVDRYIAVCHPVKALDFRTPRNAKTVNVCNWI
Sequence of Kappa-type opioid receptor (Rattus norvegicus) (P34975 whole entry): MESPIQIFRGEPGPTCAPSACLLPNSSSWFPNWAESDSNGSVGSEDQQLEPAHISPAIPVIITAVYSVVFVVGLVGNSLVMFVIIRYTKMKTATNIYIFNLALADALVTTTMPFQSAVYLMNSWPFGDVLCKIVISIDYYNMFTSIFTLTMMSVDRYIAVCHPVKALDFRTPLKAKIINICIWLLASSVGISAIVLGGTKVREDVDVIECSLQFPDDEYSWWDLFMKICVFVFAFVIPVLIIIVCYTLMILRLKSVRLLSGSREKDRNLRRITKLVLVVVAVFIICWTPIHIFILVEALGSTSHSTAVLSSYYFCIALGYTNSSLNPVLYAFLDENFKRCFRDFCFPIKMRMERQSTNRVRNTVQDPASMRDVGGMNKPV
Sequence of Kappa-type opioid receptor (Cavia porcellus, UniProt P41144) (P41144 whole entry): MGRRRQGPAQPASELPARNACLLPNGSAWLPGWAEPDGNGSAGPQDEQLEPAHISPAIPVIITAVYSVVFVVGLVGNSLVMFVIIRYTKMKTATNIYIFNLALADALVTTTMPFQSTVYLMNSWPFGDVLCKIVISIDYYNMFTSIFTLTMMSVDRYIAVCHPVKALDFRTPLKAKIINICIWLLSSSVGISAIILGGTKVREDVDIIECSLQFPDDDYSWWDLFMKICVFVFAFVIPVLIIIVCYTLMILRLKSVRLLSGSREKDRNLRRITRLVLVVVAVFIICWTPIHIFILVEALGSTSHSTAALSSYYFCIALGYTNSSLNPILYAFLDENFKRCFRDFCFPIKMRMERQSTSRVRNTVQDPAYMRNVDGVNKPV
Sequence of 5-hydroxytryptamine receptor 2B (P41595 whole entry): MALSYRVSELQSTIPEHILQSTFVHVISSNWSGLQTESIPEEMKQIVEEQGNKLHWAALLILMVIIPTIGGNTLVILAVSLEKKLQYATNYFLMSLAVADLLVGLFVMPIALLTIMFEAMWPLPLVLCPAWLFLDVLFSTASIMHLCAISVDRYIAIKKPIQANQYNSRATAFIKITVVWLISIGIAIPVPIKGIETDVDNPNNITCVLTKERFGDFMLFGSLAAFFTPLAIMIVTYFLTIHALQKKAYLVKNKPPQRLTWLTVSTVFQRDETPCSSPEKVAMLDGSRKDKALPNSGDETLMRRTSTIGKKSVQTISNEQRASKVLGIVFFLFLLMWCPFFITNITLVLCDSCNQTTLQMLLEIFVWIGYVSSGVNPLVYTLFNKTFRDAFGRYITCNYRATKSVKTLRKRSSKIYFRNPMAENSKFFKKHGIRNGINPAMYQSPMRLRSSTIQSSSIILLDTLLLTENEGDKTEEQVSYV
Sequence of Mu-type opioid receptor (Rattus norvegicus) (P33535 whole entry): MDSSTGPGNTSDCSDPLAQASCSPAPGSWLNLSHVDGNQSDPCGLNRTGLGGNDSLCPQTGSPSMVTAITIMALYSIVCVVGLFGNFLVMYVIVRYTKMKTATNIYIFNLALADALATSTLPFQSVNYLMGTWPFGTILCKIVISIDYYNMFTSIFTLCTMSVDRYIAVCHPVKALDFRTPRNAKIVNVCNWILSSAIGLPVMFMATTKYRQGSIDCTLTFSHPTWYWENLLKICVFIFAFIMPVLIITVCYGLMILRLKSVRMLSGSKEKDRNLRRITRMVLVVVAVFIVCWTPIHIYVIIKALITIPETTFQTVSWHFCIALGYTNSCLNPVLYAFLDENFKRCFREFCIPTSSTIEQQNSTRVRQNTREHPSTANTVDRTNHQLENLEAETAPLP
Sequence of Histamine H1 receptor (P35367 whole entry): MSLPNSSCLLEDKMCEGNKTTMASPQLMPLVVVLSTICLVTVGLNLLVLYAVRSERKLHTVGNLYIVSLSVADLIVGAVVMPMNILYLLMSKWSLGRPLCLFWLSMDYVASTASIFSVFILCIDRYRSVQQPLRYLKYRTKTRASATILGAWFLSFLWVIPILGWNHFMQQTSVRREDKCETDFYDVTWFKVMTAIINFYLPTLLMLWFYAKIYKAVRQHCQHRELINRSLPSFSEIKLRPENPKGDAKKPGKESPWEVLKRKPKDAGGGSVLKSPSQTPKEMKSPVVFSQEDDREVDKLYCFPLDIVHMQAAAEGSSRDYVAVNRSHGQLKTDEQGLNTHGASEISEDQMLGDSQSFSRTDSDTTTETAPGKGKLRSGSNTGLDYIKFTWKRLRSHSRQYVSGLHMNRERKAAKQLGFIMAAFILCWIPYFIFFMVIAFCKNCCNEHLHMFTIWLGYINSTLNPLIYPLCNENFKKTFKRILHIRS
Sequence of Sodium-dependent noradrenaline transporter (P23975 whole entry): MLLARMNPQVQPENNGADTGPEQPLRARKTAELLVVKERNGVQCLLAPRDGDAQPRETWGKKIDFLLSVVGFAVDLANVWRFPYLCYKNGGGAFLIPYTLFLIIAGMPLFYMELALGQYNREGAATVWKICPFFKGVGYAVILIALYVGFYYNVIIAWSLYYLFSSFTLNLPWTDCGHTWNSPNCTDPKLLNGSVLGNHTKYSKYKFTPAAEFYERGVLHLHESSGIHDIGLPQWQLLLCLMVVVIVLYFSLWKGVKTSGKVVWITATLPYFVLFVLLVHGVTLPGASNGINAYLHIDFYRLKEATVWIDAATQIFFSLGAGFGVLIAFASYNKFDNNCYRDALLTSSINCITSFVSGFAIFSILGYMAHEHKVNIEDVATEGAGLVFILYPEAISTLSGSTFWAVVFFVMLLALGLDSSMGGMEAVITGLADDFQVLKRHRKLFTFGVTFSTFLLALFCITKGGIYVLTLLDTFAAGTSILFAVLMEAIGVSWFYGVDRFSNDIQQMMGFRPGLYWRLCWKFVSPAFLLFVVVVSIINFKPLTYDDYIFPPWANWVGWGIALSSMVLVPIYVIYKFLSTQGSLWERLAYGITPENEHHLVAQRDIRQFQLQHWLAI
Sequence of Muscarinic acetylcholine receptor M3 (P20309 whole entry): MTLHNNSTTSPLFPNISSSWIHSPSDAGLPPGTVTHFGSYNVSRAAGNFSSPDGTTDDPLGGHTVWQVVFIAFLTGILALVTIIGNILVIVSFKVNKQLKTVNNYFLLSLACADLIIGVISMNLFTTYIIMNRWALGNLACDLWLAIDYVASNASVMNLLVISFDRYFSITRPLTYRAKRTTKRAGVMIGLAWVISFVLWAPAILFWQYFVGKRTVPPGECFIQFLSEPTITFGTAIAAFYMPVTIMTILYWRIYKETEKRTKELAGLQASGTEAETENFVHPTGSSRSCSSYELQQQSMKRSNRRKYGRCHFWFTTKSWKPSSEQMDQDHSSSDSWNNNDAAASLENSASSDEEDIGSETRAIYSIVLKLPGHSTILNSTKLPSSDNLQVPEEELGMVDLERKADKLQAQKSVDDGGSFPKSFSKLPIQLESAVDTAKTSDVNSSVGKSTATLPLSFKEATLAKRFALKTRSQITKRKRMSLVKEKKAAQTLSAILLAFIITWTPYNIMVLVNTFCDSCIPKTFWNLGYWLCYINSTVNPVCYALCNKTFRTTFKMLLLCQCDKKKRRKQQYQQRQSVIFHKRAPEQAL
Sequence of Sigma non-opioid intracellular receptor 1 (Q99720 whole entry): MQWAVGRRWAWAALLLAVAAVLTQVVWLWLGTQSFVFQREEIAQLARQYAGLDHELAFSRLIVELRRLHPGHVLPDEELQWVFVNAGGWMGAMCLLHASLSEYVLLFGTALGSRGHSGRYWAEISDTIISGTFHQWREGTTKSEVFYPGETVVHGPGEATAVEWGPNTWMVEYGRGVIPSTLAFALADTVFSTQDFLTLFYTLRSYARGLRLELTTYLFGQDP

In the case of COc1ccc(N2CCN(CCCNC(=O)Cn3c(=O)c4cccn4c4ccccc43)CC2)cc1, the pIC50 [1] was less than 4.49 and the pIC50 (Mu-type opioid receptor [2]) was less than 4.49.

For Cc1ccc(S(=O)(=O)NCc2ccc(C(=O)NCCN(Cc3ccc(Br)cc3)C(C)C)cc2)cc1, the pIC50 [1] was less than 4.49 and the pIC50 (Mu-type opioid receptor [2]) was less than 4.49.

Compound CCc1ccc(S(=O)(=O)NCc2ccc(C(=O)NCCN(Cc3ccccc3)C(C)C)cc2)cc1 has a pIC50 [3] of 5.95, a pIC50 [1] of less than 4.49 and a pIC50 (Mu-type opioid receptor [2]) of less than 4.49.

In the case of CC(C)CNCc1ccc(-c2ccccc2S(=O)(=O)N2CCCC2)cc1 [PF-04455242], the ID50 [4] was 8.6 mg/kg, the Activity [5] was 82% and the ED50 (Rattus norvegicus [6]) was 2.3 mg/kg. For the same compound, the ID50 [7] was 2 mg/kg.

COc1ccc(N2CCN(CCCNC(=O)Cn3c(=O)c4cccn4c4cccnc43)CC2)cc1 showed a pIC50 [8] of 5.89, a pIC50 [3] of 5.71 and a pIC50 [1] of less than 4.49. It also gave a pIC50 (Mu-type opioid receptor [2]) of less than 4.49.

Compound Cc1cc(C)cc([C@@H]2CCCN2Cc2ccc(Oc3ccc(C(N)=O)cc3F)cc2)c1 [ATICAPRANT] has a Ratio (Homo sapiens) of 43, an ED50 (Rattus norvegicus [9]) of 0.4 mg/kg and an AUC [10] of 186 ng·h/mL. The half-life [11] was 1.8 h, the bioavailability [12] was 25.4% and the half-life [13] was 3.8 h. The Tmax [14] was 0 h, the Tmax [15] was 2 h and the AUC [16] was 466 ng·h/mL. The clearance [17] was 89.3 mL/min/kg, the Cmax [18] was 95 ng/mL and the Cmax [19] was 334 ng/mL.

COc1ccc(N2CCN(CCCNC(=O)Cn3c(=O)c4cccn4c4c(C)ccnc43)CC2)c(OC)c1 showed a pIC50 [8] of 8.40, a pIC50 [3] of 6.72 and a pIC50 [1] of less than 4.49.

CC1CN(CCCc2ccccc2)C2C[C@H](NCC3CC3)CC1(c1cccc(O)c1)C2 (stereo not given in full) showed a pEC50 [20] of less than 5.30, a pEC50 [21] of less than 5.30 and a pEC50 (Mu-type opioid receptor [22]) of 3.89.

Compound CC(C)[C@@H](CN1CC[C@@](C)(c2cccc(O)c2)[C@@H](C)C1)NC(=O)[C@H]1Cc2ccc(O)cc2CN1C has a Ke (Cavia porcellus) greater than 300 nM.

With CCOC(=O)C(CN1CC[C@@](C)(c2cccc(O)c2)[C@@H](C)C1)OC(=O)[C@H]1Cc2ccc(O)cc2CN1 (stereo not given in full) the Kb (Mu-type opioid receptor [23]) was less than 5.01 µM, the pKi [24] was 8.76 and the Kb [25] was 0.0024 µM. It also gave a pKi (Mu-type opioid receptor [26]) of 7.58 and a pKi [27] of 5.97.

For Cc1ccc(S(=O)(=O)NCc2ccc(C(=O)NCCN(Cc3ccccc3)C(C)C)cc2)cc1, the pKi [28] was greater than 6.00, the pKi [29] was greater than 6.00 and the pKi (Histamine H1 receptor) was greater than 6.00. It also gave a pKi [30] greater than 6.00, a pKi [31] greater than 6.00 and a pKi [32] greater than 6.00. It also gave a pKi [33] greater than 6.00, a pIC50 [1] of less than 4.49 and a pIC50 (Mu-type opioid receptor [2]) of less than 4.62. For the same compound, the remaining at 1 h [34] was 0.07%, the pKi [35] was greater than 6.00 and the pKi [36] was greater than 6.00.

For CC1CN(CCCc2ccccc2)C2C[C@H](N)CC1(c1cccc(O)c1)C2 (stereo not given in full), the pEC50 [20] was less than 5.30, the pEC50 [21] was 5.12 and the pEC50 (Mu-type opioid receptor [22]) was 4.71. The Ke [37] was 10.1 nM.

With CC(=O)N1Cc2cc(O)ccc2C[C@@H]1C(=O)N[C@H](CN1CC[C@@](C)(c2cccc(O)c2)[C@@H](C)C1)C(C)C the Ke (Cavia porcellus) was greater than 300 nM.

With C[C@@H]1NC(=O)[C@@H]2CCCN2C(=O)[C@H](Cc2ccccc2)NC(=O)[C@H](Cc2c[nH]c3ccccc23)NC1=O (cyclo(AWFP)) the Time (Mus musculus) was less than 18 h.

With C[C@H]1CN(CCOC(=O)[C@H]2Cc3ccc(O)cc3CN2)CC[C@@]1(C)c1cccc(O)c1 the Kb (Mu-type opioid receptor [23]) was 0.0977 µM, the pKi [24] was 6.80 and the Kb [25] was 0.135 µM. The pKi (Mu-type opioid receptor [26]) was 6.73 and the pKi [27] was 6.32.

O=C1N[C@@H](Cc2ccccc2)C(=O)N2CCC[C@H]2C(=O)N[C@@H](Cc2ccccc2)C(=O)N[C@H]1Cc1c[nH]c2ccccc12 (cyclo(FPFW)) gave a Kb [38] of 0.0652 µM, a Kb (Mu-type opioid receptor [39]) of 0.0102 µM and a Time (Mus musculus) greater than 24 h.
